For series [1], the target named is T1, M. tuberculosis MshC (Cys:GlcN-Ins ligase) (Mycobacterium tuberculosis, UniProt P9WJM9). The format is biochemical. The conditions noted are these: 0.1-5 mM, FIG. 16.
Series [2] addresses T1, M. tuberculosis MshC (Cys:GlcN-Ins ligase). It counts as biochemical.
The target is the same in series [3]. The conditions noted are these: for activity as alternative substrate to Cys: 80 μM to 1.6 mM.
In series [4] the test system is M. smegmatis MSH deficient mutants (Tn1, Tn2, I64). The format is cell-based.
The target of series [5] is T1, M. tuberculosis MshC (Cys:GlcN-Ins ligase). The format is biochemical. The following applies: 2, 10, 50 or 100 μM zinc chloride, FIG. 16.
Series [6] has as its system N[C@@H](CS)C(=O)O. The experiment in a line: purified protein, by the assay type. The conditions noted are these: 37.0 °C.

Values joined by “and” are separate entries in the source; they are usually repeats but may differ in a detail not shown here. Identical values can stand only once. Like-named read-outs stand apart in the source and are kept apart here. Marks after values point to notes of the source that are not given here.

T1 sequence (P9WJM9 whole entry): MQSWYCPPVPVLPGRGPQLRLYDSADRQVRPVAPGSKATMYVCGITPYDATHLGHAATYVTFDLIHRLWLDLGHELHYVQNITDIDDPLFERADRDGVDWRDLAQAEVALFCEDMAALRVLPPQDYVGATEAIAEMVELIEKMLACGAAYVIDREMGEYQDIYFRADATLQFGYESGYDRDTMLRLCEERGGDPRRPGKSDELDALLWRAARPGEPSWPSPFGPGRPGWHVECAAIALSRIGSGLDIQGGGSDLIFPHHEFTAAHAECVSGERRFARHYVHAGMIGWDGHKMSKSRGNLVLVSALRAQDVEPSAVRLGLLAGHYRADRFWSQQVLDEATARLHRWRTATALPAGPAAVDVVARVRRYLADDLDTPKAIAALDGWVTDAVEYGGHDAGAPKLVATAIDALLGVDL

For the molecule `c1cnc2c(c1)ccc1cccnc12` [1,10-phenanthroline], the “effect of metal chelation on enzyme activity” value in series [1] is on record as “no significant loss of activity”.

Consider `CC[C@H](N)C(=O)O` [L-α-aminobutyric acid], for which the “inhibition of ligase activity” value in series [2] is recorded as “Only very minor inhibition”.

As to `CC(=O)N[C@@H](CS)C(=O)O` [AcCys, N-acetylcysteine], the “inhibition of ligase activity” value in series [2] is recorded as “minor inhibition”. Also, in series [3], the relative spec. act. entry is “≦0.24” and the “activity as alternative substrate to Cys” value was “Nor was significant activity detected”.

Take `O=C(O)CCS` [β-mercaptopropionate, β-mercaptopropionic acid]: the “inhibition of ligase activity” value in series [2] is listed as “minor inhibition”. For the same molecule, in series [3], the relative spec. act. result was “≦0.004”; the “activity as alternative substrate to Cys” value was “Neither β-mercaptopropionic acid nor cysteamine, derived from Cys by removal of the amino and carboxyl groups, respectively, produced evidence of reaction”.

With `N[C@@H](CO)C(=O)O` [L-serine], in series [2], the “inhibition of ligase activity” value is listed as “Only very minor inhibition”. For the same molecule, in series [3], the relative spec. act. result is listed as “≦0.008” and the “activity as alternative substrate to Cys” value is listed as “Nor was significant activity detected”.

Consider `N[C@@H](CS)C(=O)O` [Cys, L-cysteine], for which, in series [3], the Specific activity result is “^cSpecific activity 108 nmol min^−1 mg^−1”, the “apparent Vmax (L-Cys varied)” value amounted to 1450 ± 200 nmol/min/mg and the relative spec. act. entry is listed as “(100)^c”.

For the molecule `Nc1ncnc2c1ncn2[C@@H]1O[C@H](COP(=O)(O)OP(=O)(O)OP(=O)(O)O)[C@@H](O)[C@H]1O` [ATP], the “decline of reaction rate” value in series [3] was 2.2 fold.

As for `N[C@@H](CCS)C(=O)O` [L-homocysteine], the “inhibition of ligase activity” value in series [2] was “Only very minor inhibition”. Also, in series [3], the relative spec. act. entry is reported as “≦0.2” and the “activity as alternative substrate to Cys” value was “Nor was significant activity detected”.

With `N[C@H](CS)C(=O)O` [D-Cys], in series [2], the % inhibition – broadly, the relative decrease from the control value, in per cent – came to 15 ± 8% and the “inhibition of ligase activity” value was “Only very minor inhibition”. In series [3], the relative spec. act. result is reported as “≦0.7” and the “activity as alternative substrate to Cys” value is “poor substrate”.

`NC(=O)c1cnccn1` [pyrazinamide]: the “difference in sensitivity between mutants” value in series [4] is on record as “no significant difference”.

For `[Cl-].[Cl-].[Zn+2]` [Zn^2+, zinc chloride], in series [5], the “effect of supplementation on enzyme activity” value is “loss in activity”.

For “M. tuberculosis MshC (Cys:GlcN-Ins ligase) (Mycobacterium tuberculosis H37Rv)”, in series [6], the Michaelis constant (Km) (as a rule, the concentration of substrate that gives half-maximal velocity) was 70 ± 15 µM and 85 ± 20 µM.

Regarding `N[C@H]1C(O)O[C@H](CO)[C@@H](O)[C@@H]1O` (stereo partly drawn) [D-GlcN, D-glucosamine], in series [3], the “activity relative to GlcN-Ins” value was approximately 1% and the relative spec. act. is on record as 1.2.

For the molecule `N[C@H]1[C@@H](OC2[C@H](O)[C@H](O)C(O)[C@H](O)[C@H]2O)O[C@H](CO)[C@@H](O)[C@@H]1O` (stereo partly drawn) [GlcN-Ins, 1D-myo-inosityl 2-amino-2-deoxy-α-D-glucopyranoside], the “apparent Vmax (GlcN-Ins varied)” value in series [3] was found to be 1160 ± 120 nmol/min/mg. Also, the Michaelis-Menten constant (Km) in series [3] (read-out: apparent Km for GlcN-Ins) amounted to 280 ± 43 µM.

Turning to `C[C@H](N)C(=O)O` [L-alanine], the “inhibition of ligase activity” value in series [2] is recorded as “Only very minor inhibition”. In addition, in series [3], the relative spec. act. entry is “≦0.016” and the “activity as alternative substrate to Cys” value is listed as “Nor was significant activity detected”.

As for `CC(=O)N[C@@H](CS)C(=O)N[C@H]1[C@@H](OC2[C@H](O)[C@H](O)C(O)[C@H](O)[C@H]2O)O[C@H](CO)[C@@H](O)[C@@H]1O` (stereo partly drawn) [MSH, 1D-myo-inosityl 2-(N-acetylcysteinyl)amido-2-deoxy-α-D-glucopyranoside], the “% inhibition” value in series [2] was 4 ± 3% and 7 ± 5%. Also, the “inhibition of ligase activity” value in series [2] (1 and 5 mM, physiologic levels) is recorded as “minimal inhibition”.

In the case of `NCCS` [cysteamine], in series [2], the “inhibition of ligase activity” value is listed as “best inhibitor” and the reduction in rate is 3 fold. For the same molecule, in series [3], the relative spec. act. entry is “≦0.16”; the “activity as alternative substrate to Cys” value was “Neither β-mercaptopropionic acid nor cysteamine, derived from Cys by removal of the amino and carboxyl groups, respectively, produced evidence of reaction”.

For the molecule `N[C@@H](CS)C(=O)N[C@H]1[C@@H](OC2[C@H](O)[C@H](O)C(O)[C@H](O)[C@H]2O)O[C@H](CO)[C@@H](O)[C@@H]1O` (stereo partly drawn) [Cys-GlcN-Ins, 1D-myo-inosityl 2-L-cysteinylamido-2-deoxy-α-D-glucopyranoside], the inhibition (usually the percentage by which the read-out fell short of the control) in series [2] was less than 1.0%.

For `CC[C@@H](CO)NCCN[C@@H](CC)CO` [ethambutol], the “difference in sensitivity between mutants” value in series [4] is given as “no significant difference”.

These data come from patent US7560229B2, “Methods of use of the enzymes of mycothiol synthesis” (priority 2002, dated 2009).
